System: tqq cluster of S. suis
Assay: High-throughput elicitor screening
Type: cell-based, Streptococcus suis
Details: for elicitation of threoglucin E: 2D slice from the 3D map, abundance of threoglucin E across all 442 elicitors, Figure 2B; for elicited features in HiTES 3D difference map: ~442-member human endogenous metabolite library, UPLC-Qtof-MS, Figure 2A

Row | SMILES | elicitation of threoglucin E | elicited features in HiTES 3D difference map
1 | c1cncc([C@@H]2CCCCN2)c1 [anabasine] | best elicitors | elicited peaks
2 | O=C(O)c1cccnc1 [niacin] | best elicitors | elicited peaks
3 | NC(=O)c1cccnc1 [nicotinamide] | – | elicited peaks

Source: article PMC10171913 (Journal of the American Chemical Society, 2022)
